We go through 4 molecules from patent US20090136482A1, “DRUG TARGET PROTEIN AND TARGET GENE, AND SCREENING METHOD” (REVERSE PROTEOMICS RESEARCH INSTITUTE CO., LTD., priority 2005, published 2009).

One assay has as its target FLJ12514-derived protein (Homo sapiens, UniProt Q9H9A5). The assay can be described thus: Biacore S51 surface plasmon resonance interaction analysis with FLJ12514-derived protein. Particulars: for interaction with the protein (dose-dependent binding amount, saturation at high doses): FLJ12514-derived protein, Biacore S51. It counts as binding. The method, then:
(§1) The obtained plasmids were subjected to phenol/chloroform treatment and the inactivation treatment of RNase according to the PROTEIOS (TOYOBO) protocol to give purified expression plasmids.
(§2) The surface of a CM5 sensor chip for S51 (commercially available from Biacore) was converted to NTA using 1 M EDC, 1.33 M NHS, and 16 mg/ml AB-NTA (pH 9.2) to give an NTA sensor chip for S51. […] The immobilization was performed by sequentially injecting 0.5 M NiCl2, 0.4 M EDC, […], a ligand (protein) solution, and 1 M ethanolamine (pH 8.5) into the passage system of Biacore S51. […] For the correction (solvent correction) of the effect of DMSO contained in the compound solutions and the running buffer, the same solutions as the running buffer containing 3.8 to 5.1% DMSO (8 points) were prepared to perform correction based on the measurement results of these solutions.
On the technique in general: SPR reads the build-up and loss of mass on a sensor chip optically.

The target of the next assay is T1, FLJ12502-derived protein (Homo sapiens, UniProt Q7Z3D6).
T1 sequence (Q7Z3D6 1-616 isoform Q7Z3D6-1): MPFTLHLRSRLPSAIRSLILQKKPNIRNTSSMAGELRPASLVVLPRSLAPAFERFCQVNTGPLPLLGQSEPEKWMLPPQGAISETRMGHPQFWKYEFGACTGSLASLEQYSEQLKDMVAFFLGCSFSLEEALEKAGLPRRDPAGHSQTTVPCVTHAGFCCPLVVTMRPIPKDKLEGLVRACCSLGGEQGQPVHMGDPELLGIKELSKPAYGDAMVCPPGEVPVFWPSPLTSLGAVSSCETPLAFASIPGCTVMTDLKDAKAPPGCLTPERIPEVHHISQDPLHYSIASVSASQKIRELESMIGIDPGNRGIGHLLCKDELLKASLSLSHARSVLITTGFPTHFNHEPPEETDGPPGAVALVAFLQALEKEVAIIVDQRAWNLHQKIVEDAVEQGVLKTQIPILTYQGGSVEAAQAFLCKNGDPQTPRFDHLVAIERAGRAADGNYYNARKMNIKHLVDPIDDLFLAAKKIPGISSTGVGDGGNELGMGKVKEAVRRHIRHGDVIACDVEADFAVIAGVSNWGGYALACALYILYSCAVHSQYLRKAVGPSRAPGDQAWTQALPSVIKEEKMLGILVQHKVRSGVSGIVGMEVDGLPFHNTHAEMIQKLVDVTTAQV
Nature of the assay: Biacore S51 surface plasmon resonance interaction analysis with FLJ12502-derived protein.

The target in the next assay is T2, FLJ31146-derived protein (Homo sapiens, UniProt Q9BSE4).
T2 construct: fused on or other part: N-terminal histidine tag and FLAG tag, with Gateway linker residues
T2 sequence (Q9BSE4 1-406): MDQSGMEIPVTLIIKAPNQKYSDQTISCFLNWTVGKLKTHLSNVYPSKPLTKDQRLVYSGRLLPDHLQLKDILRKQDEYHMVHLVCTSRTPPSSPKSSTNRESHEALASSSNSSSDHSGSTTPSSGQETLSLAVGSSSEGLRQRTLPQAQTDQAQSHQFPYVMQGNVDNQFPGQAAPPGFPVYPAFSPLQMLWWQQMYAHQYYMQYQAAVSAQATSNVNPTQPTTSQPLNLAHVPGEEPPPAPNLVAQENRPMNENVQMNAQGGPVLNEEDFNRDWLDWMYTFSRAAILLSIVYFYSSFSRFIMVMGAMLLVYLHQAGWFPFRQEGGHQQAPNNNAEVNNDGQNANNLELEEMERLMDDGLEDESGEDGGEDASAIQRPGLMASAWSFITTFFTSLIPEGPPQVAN
Nature of the assay: Biacore S51 surface plasmon resonance interaction analysis with FLJ31146-derived protein. It counts as binding. The method, then: as §1, §2

Another assay has as its target T3, FLJ14583-derived protein (Homo sapiens, UniProt Q12816).
T3 sequence (Q12816 1-1431): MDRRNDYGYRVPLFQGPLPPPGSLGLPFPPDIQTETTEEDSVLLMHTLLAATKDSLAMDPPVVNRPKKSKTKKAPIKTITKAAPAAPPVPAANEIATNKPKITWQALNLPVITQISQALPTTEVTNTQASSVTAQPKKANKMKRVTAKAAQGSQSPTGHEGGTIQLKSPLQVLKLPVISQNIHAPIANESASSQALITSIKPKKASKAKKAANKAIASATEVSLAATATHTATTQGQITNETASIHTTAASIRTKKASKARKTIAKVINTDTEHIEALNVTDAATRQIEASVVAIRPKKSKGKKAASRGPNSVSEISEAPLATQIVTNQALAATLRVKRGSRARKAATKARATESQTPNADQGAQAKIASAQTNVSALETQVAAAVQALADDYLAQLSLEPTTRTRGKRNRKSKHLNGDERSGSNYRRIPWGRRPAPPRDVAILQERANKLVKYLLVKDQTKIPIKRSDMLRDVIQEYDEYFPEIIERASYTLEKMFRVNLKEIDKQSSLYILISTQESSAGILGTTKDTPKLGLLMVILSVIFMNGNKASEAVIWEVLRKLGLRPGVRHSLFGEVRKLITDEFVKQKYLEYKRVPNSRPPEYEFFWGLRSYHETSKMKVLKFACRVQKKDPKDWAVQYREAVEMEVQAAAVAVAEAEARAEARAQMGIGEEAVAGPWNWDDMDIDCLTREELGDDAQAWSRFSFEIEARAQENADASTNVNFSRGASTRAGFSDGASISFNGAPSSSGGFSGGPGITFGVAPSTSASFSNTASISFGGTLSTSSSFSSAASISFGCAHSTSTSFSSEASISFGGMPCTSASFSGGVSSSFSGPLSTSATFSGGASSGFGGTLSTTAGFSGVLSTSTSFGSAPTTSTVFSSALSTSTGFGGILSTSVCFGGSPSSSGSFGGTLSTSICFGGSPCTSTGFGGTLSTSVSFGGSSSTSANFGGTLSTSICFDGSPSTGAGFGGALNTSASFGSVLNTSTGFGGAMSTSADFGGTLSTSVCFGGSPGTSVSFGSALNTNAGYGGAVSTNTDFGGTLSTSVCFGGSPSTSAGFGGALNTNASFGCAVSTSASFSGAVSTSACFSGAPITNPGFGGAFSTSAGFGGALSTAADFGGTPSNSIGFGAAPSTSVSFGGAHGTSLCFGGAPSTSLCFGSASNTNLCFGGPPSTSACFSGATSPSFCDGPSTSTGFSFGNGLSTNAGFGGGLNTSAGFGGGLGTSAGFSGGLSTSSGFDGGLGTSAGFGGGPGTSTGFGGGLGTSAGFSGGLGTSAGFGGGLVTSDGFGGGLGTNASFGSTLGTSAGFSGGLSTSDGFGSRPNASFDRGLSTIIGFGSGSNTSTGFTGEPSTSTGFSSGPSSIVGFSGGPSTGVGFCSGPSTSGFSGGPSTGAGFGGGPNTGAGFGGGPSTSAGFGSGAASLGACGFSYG
Nature of the assay: Biacore S51 surface plasmon resonance interaction analysis with FLJ14583-derived protein. It counts as binding. The method, then:
as §1, §2

The target in another assay is T4, FLJ10368-derived protein (Homo sapiens, UniProt Q9NUX5).
T4 construct: fused on or other part: N-terminal histidine tag and FLAG tag, with Gateway linker residues
T4 sequence (Q9NUX5 1-634): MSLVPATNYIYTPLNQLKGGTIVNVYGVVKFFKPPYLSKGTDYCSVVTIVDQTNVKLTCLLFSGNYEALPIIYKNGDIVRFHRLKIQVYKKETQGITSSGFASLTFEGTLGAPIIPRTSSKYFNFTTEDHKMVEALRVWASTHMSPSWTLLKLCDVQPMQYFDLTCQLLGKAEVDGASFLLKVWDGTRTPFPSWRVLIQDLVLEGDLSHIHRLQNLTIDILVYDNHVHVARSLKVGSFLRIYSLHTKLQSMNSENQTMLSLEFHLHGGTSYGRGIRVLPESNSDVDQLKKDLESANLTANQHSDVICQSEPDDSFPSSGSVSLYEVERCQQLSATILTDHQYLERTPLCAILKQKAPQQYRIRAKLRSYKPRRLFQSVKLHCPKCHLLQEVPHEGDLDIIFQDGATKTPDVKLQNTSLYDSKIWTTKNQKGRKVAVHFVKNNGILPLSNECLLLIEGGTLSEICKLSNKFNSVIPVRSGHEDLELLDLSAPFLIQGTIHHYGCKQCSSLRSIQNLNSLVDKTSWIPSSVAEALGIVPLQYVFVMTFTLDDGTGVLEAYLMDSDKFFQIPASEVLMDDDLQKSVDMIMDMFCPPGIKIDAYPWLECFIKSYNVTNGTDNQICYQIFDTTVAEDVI
The assay can be described thus: Biacore S51 surface plasmon resonance interaction analysis with FLJ10368-derived protein. In kind it is binding. The method, then:
as §1, §2

The next assay has as its target T5, FLJ12389-derived protein (Homo sapiens, UniProt Q86V21).
T5 sequence (Q86V21 1-672): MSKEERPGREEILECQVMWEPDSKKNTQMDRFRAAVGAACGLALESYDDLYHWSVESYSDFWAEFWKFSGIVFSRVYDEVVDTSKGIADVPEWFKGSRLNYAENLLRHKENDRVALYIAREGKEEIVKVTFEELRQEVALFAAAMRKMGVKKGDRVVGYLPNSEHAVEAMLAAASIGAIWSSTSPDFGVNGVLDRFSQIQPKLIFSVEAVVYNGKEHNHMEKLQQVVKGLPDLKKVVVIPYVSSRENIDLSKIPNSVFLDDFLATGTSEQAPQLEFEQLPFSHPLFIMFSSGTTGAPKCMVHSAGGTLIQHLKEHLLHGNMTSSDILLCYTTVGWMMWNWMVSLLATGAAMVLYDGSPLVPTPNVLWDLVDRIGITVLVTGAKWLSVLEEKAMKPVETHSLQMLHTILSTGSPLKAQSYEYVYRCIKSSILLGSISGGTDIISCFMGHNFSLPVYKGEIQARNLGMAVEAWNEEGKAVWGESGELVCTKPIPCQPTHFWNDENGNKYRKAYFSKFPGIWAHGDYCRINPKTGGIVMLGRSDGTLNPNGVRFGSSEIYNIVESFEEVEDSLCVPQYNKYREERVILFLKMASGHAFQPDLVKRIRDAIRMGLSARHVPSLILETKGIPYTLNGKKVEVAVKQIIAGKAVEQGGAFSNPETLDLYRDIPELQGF
The assay can be described thus: Biacore S51 surface plasmon resonance interaction analysis with FLJ12389-derived protein. In kind it is binding. The method, then: as §1, §2

Sequence of FLJ12514-derived protein (Q9H9A5 whole entry): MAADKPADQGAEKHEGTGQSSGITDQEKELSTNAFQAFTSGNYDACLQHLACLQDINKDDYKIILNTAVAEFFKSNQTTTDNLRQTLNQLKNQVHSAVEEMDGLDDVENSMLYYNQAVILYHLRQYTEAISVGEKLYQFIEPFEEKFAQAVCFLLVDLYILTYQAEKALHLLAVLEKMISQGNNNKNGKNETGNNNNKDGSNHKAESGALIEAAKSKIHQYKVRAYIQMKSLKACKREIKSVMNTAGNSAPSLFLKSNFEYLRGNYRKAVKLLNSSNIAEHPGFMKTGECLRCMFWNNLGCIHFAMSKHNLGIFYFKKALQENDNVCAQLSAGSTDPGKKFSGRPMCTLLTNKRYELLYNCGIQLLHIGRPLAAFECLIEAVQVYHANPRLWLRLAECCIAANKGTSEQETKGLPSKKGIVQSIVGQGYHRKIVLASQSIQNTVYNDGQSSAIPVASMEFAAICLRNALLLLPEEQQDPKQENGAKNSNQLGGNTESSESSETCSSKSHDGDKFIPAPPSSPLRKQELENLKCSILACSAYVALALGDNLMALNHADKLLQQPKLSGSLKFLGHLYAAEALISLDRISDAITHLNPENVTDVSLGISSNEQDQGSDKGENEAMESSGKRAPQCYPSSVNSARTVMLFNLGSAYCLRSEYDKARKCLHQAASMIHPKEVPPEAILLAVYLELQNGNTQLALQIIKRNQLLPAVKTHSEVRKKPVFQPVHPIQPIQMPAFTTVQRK

By Kd is commonly meant the free concentration of one partner at which half of the binding sites on the other are occupied at equilibrium, for simple one-to-one binding. Turning to `CC[C@@]1(O)C[C@H](O[C@H]2C[C@H](N(C)C)[C@H](O[C@H]3C[C@H](O)[C@H](O[C@H]4CCC(=O)[C@H](C)O4)[C@H](C)O3)[C@H](C)O2)c2c(cc3c(c2O)C(=O)c2c(O)cccc2C3=O)[C@H]1C(=O)OC` [aclarubicin], at FLJ12514-derived protein, the dissociation constant Kd was determined as 6.11 µM and the “interaction with the protein (dose-dependent binding amount, saturation at high doses)” value (shortened to “interaction with the protein”) is on record as “specifically interact”.
In turn, `CC1=C(C(=O)O)N2C(=O)[C@@H](NC(=O)[C@H](N)c3ccccc3)[C@H]2SC1` [cephalexin] displayed a dissociation constant (Kd) on FLJ12502-derived protein of 5.98 µM. In addition, the “interaction with the protein” value at FLJ12502-derived protein (FLJ12502-derived protein, Biacore S51) is listed as “specifically interact”; at FLJ31146-derived protein, “specifically interact”; at FLJ14583-derived protein, “specifically interact”.
Consider `COC(=O)[C@H]1[C@H]2C[C@@H]3c4[nH]c5cc(OC)ccc5c4CCN3C[C@H]2C[C@@H](OC(=O)c2cc(OC)c(OC)c(OC)c2)[C@@H]1OC` [reserpine], for which the “interaction with the protein” value on FLJ10368-derived protein was “specifically interact”.
As for `c1ccc2[nH]c(-c3cscn3)nc2c1` [thiabendazole], the “interaction with the protein” value on FLJ12514-derived protein, on FLJ12389-derived protein and on FLJ10368-derived protein was “specifically interact” in each case.
